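Method: 48-hour compound exposure of cells in 96-well plates, five concentrations, linear interpolation of endpoints. GI50 is the concentration that inhibits growth by half.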 Active and inactive are the calls of the source. No stated cut-off is given here; in the data, active = GI50 up to about 1.1 µM and inactive = higher. Bounds are passed on as bounds.

What all share (assay): growth of human tumour cells (NCI), 48 h
The test system of assay [1] is ACHN.
Assay [2] has as its system HL-60.
Assay [3] concerns HOP-62.
The test system of assay [4] is IGROV-1.
Assay [5] concerns KM12.
Assay [6] deals with LOX IMVI.
Assay [7] concerns MOLT-4.
For assay [8], the system named is NCI-H226.
Assay [9] relates to OVCAR-8.
Assay [10] concerns SK-MEL-5.
Assay [11] relates to SK-OV-3.
Assay [12] concerns SN12C.
Assay [13] concerns SW-620.
Assay [14] has as its system U-251.
In assay [15] the test system is UO-31.
Assay [16] concerns NCI-H522.

In the case of `OCC(CO)C1c2cccc3ccc4cccc1c4c23`, the GI50 in assay [1], in assay [2], in assay [3], in [4], in assay [5] and in assay [6] was > 100 µM (inactive) each time. Besides, the GI50 was > 100 µM (inactive) in [7]; 67.5 µM (inactive) in [8]; > 100 µM (inactive) in [9]; > 100 µM (inactive) in assay [10]; > 100 µM (inactive) in assay [11]; > 100 µM (inactive) in assay [12]. Besides, the GI50 is > 100 µM (inactive) in assay [13], > 100 µM (inactive) in assay [14] and 62.5 µM (inactive) in assay [15].

With `CN(C)c1ccc(/C=c2\sc3nnc(-c4ccco4)n3c2=O)cc1`, the GI50 in assay [2], in [3], in assay [4], in assay [5], in assay [6] and in assay [7] was > 100 µM (inactive) each time. Besides, the GI50 in assay [8], in [16], in [9], in assay [10], in assay [11] and in assay [12] was > 100 µM (inactive) in each case. Further, the values for the GI50 in assay [13], in assay [14] and in [15] were > 100 µM (inactive), 57.8 µM (inactive) and > 100 µM (inactive), respectively.

As to `COc1cc2[nH]c3c(c2cc1OC)CCN[C@]31CC[C@]2(CC3c4c(cc(OC)c(O)c42)CCN3C)C[C@H]1OC` (stereo partly specified), the GI50 in assay [1] was 24.8 µM (inactive); in [2], 11.6 µM (inactive); in assay [3], 21.8 µM (inactive); in [4], 22.5 µM (inactive); in assay [5], 17.7 µM (inactive); in assay [6], 24.3 µM (inactive). Further, the GI50 in [7] was 12.9 µM (inactive); in [8], 45.5 µM (inactive); in [9] it was 19.6 µM (inactive); in assay [10] it was 15 µM (inactive); in assay [11], 25.8 µM (inactive); in assay [12], 21 µM (inactive). Also, the GI50 in assay [13] was 22.3 µM (inactive); in assay [14] it was 18 µM (inactive); in [15], > 10 µM (inactive).

For `O=C1CSc2ccncc2N1`, the GI50 in assay [1], in assay [2], in assay [3], in [4], in assay [6] and in [7] was > 100 µM (inactive) throughout. Also, the GI50 in [8], in assay [9], in [10], in [12], in assay [13] and in assay [14] was > 100 µM (inactive) each time. Moreover, the GI50 in assay [15] is > 100 µM (inactive).

For the compound `Nc1nc(NCCO)c(N=O)c(=O)[nH]1`, the GI50 in [1], in assay [2], in assay [3], in [4], in assay [5] and in assay [6] was > 100 µM (inactive) throughout. For the same compound, the GI50 in assay [8], in assay [16], in assay [9], in assay [10], in [11] and in assay [12] was > 100 µM (inactive) in each case. The GI50 in assay [13], in assay [14] and in assay [15] was > 100 µM (inactive) each time.

Regarding `O=C1CCC(=O)C1=NNc1cc(Cl)cc(Cl)c1`, the GI50 in assay [1] is > 100 µM (inactive); in assay [2] it was 63.5 µM (inactive); in assay [3] it was > 100 µM (inactive); in assay [4] it was > 100 µM (inactive); in assay [5], > 100 µM (inactive); in assay [6], > 100 µM (inactive). Also, the GI50 in [7] was 53.8 µM (inactive); in assay [8] it was > 100 µM (inactive); in [9] it was > 100 µM (inactive); in [10] it was 61.5 µM (inactive); in [11] it was > 100 µM (inactive); in assay [12] it was > 100 µM (inactive). For the same compound, the GI50 is > 100 µM (inactive) in [13], 69.2 µM (inactive) in [14] and > 100 µM (inactive) in [15].

As to `COc1ccc2c(c1)C(O)(C(F)(F)F)c1cc(C(=O)C(F)(F)F)c3ccccc3c1N2` (stereo unspecified), the GI50 is 5.47 µM (inactive) in assay [1]; 14.7 µM (inactive) in assay [2]; 13.8 µM (inactive) in assay [4]; 4.35 µM (inactive) in [5]; 4.99 µM (inactive) in assay [6]; 8.99 µM (inactive) in assay [7]. The GI50 was 12.8 µM (inactive) in [8]; 7.74 µM (inactive) in assay [16]; 13.7 µM (inactive) in assay [10]; 17.8 µM (inactive) in [11]; 13.9 µM (inactive) in assay [13]; 9.86 µM (inactive) in [15].

As to `O=C(Nc1ccccc1[N+](=O)[O-])/C(=N/Nc1cccc(Cl)c1)c1c(O)c2ccccc2oc1=O`, the GI50 in assay [1] is > 100 µM (inactive); in assay [2] it was > 10 µM (inactive); in [4], 89.3 µM (inactive); in [5] it was > 100 µM (inactive); in [6], > 100 µM (inactive); in assay [7], 48 µM (inactive). The GI50 in assay [8] is > 100 µM (inactive); in assay [16], 30.5 µM (inactive); in assay [10], 49.4 µM (inactive); in assay [11], > 100 µM (inactive); in assay [13], 40.9 µM (inactive); in assay [15], > 100 µM (inactive).

With `COc1ccc2[nH]c3c(cnn4cnnc34)c2c1`, the GI50 in assay [1], in assay [2], in assay [3], in assay [4], in [5] and in assay [6] was > 100 µM (inactive) each time. Further, the GI50 in assay [7] is > 100 µM (inactive); in [16], > 100 µM (inactive); in assay [9], > 100 µM (inactive); in [10], 0.262 µM (active); in assay [11], > 100 µM (inactive); in assay [12], > 100 µM (inactive). Also, the GI50 in [13], in assay [14] and in assay [15] was > 100 µM (inactive) throughout.

Consider `COC1CC(OC)C(O)C(CO)O1` (stereo unspecified), for which the GI50 in assay [1], in assay [2], in assay [3], in assay [4], in assay [5] and in [6] was > 100 µM (inactive) each time. Further, the GI50 in assay [7], in assay [16], in [9], in [10], in assay [11] and in assay [12] was > 100 µM (inactive) throughout. The GI50 in assay [13], in assay [14] and in assay [15] was > 100 µM (inactive) in each case.

Take `CC/C(=N\NS(=O)(=O)c1ccccc1)c1ccccc1`: the GI50 in [1], in assay [2], in assay [3], in assay [4], in assay [5] and in assay [6] was > 100 µM (inactive) each time. For the same compound, the GI50 in assay [7], in assay [8], in [9], in [10], in [11] and in [12] was > 100 µM (inactive) each time. For the same compound, the GI50 in assay [13], in assay [14] and in [15] was > 100 µM (inactive) throughout.

Take `COc1nc(NC2OC(COC(C)=O)C(OC(C)=O)C(OC(C)=O)C2OC(C)=O)c2c(OC(C)=O)c(C)c(=O)oc2n1` (stereo unspecified): the GI50 was 1.7 µM (inactive) in assay [1]; > 100 µM (inactive) in [2]; > 100 µM (inactive) in assay [3]; > 100 µM (inactive) in [4]; > 100 µM (inactive) in assay [5]; > 100 µM (inactive) in [6]. In addition, the GI50 in [7], in [8], in assay [9], in assay [10], in assay [11] and in assay [12] was > 100 µM (inactive) each time. The GI50 in assay [13], in assay [14] and in [15] was > 100 µM (inactive) in each case.

Turning to `O=c1[nH]c(C2CCCCC2)nc2c(Cl)cccc12`, the GI50 in [1], in assay [2], in [3], in assay [4], in assay [5] and in [8] was > 100 µM (inactive) throughout. The GI50 in assay [16], in [9], in assay [10], in assay [11], in assay [12] and in [13] was > 100 µM (inactive) in each case. Further, the GI50 in assay [14] and in assay [15] was > 100 µM (inactive) in each case.

`O=C(Cc1c(C(=O)Nc2ccccc2)sc(C(=O)Nc2ccccc2)c1CC(=O)Nc1ccccc1)Nc1ccccc1`: the GI50 in [1], in assay [2], in [3], in [4], in assay [5] and in [6] was > 100 µM (inactive) throughout. In addition, the GI50 in [8], in assay [16], in [9], in assay [10], in assay [11] and in assay [12] was > 100 µM (inactive) each time. Further, the GI50 in assay [13], in assay [14] and in assay [15] was > 100 µM (inactive) throughout.

The values above are taken from ChEMBL document CHEMBL1201862, “PubChem BioAssay data set” (2004).
